Experimental data taken from US11434205B2, “Substituted imidazole carboxylate derivatives and the use thereof” (priority 2018, dated 2022).
Read-outs that look alike come from different tables or passages of the source.

Legend:
rats [1] = assay: Loss of righting reflexes (LORR) assay in rats, ED50 by up and down method; format: in vivo, rat; settings: Rattus norvegicus, tail vein, class symbols
Protocol: The Anesthetic Activity of the Compounds was Assessed in Rats Using a Loss of Righting Reflexes (LORR) Assay
(§1) Adult male Sprague-Dawley rats (250-300 g) were selected for the experiment. […] The anesthesia effects of the compounds were assessed in rats using a LORR assay and a period >30 s was considered as an indicator of general anesthesia. Then the up and down method was used to determine 50% effective dose (ED50). The drugs were administered through the tail vein of rats in a volume of 0.6 mL and at a rate of 0.1 mL/s.

rats [2] = test system: rats
Protocol: as §1

rats [3] = assay: Pharmacological characteristics at equivalent doses (2×ED50) in rats; settings: 2×ED50, tail vein
Protocol: Comparison of Pharmacological Characteristics of the Compounds at Equivalent Doses (2×ED50) in Rats
Adult male Sprague-Dawley rats (250-300 g) were selected for the experiment (n=8). […] The drugs were administered at a dose twice their ED50 through the tail vein of rats in a volume of 0.6 mL and at a rate of 0.1 mL/s. In addition, the time of LORR was recorded as the onset time of anesthesia. […] Furthermore, the duration of the pharmacological effects is sufficient to meet the time requirements for rapid induction of general anesthesia and for diagnostic examinations, some short invasive clinical examinations, or operations.

[4] = test system: secretion of corticosterone, H295R cell line; assay: cells; format: cell-based; settings: for EC50: read-out: EC50 (Corticosterone)
Protocol: (§2) The Effects of the Compounds on Adrenocortical Function In Vitro Test
(§3) Then secretion of the cortisol and corticosterone in the supernatant, was measured using HPLC-MS/MS method to determine whether the compounds of the present invention had adrenotoxic potential.

[5] = test system: secretion of cortisol, H295R cell line; assay: cells; format: cell-based; settings: for EC50: read-out: EC50 (Cortisol)
Protocol: as §2, §3

rats [6] = format: in vivo, rat; settings: rats of the MAP/HR figures, 2×ED50, tail vein; same value in min
Protocol: The Effects of the Compounds on the Circulatory Function were Measured in Rats Using a Small Animal Implanted Physiological Signal Telemetry System
The anesthetic activity of the compounds was assessed in rats using a LORR assay and the up and down method was used to determine ED50. […] A small animal implantable physiological signal telemetry system from DSI (Data Science International, Inc.) was used to measure the changes in heart rate (HR) and blood pressure in rats during 30 min after administration. Then mean arterial pressure (MAP) and HR were used as representative indicators to determine hemodynamic stability of the compounds of the present invention in rats.
A small animal implantable physiological signal telemetry system from DSI (Data Science International, Inc.) including implants (RATHD-521, DSI, United States), receiver boards (RPC-1, DSI, United States), signal conversion devices (DEM, DSI, USA), perfusion glue (DSI, USA), fibrin membrane (DSI, USA), etc.
First, animal models were established. A left ventricular catheter, an abdominal aortic catheter and ECG wires were placed into rats. At least one week after surgery, data were recorded.
Administration procedure: rats were put into a restraint device with a 20 G indwelling catheter placed into a lateral tail vein. After administration of 0.2 mL heparin, a pre-filled extension tube was attached and taped to the tail vein to secure the extension tube. Then the rats were removed from the restraint device to a cage before placing them together on the signal receiver. […] Finally, the pharmacological effects, adverse reactions, and behavioural manifestations of the rats were observed and recorded
Data collection: After setting the data collection parameters on the software, the power of the implant was turned on to start data collection. In this experiment, data recording frequency was set to 15 s. Data collection was continuously recorded for 30 min before and after administration of the drugs in rats. After data acquisition, the test was stopped.

rats [7] = test system: rats; remark: listed apart in the source
Protocol: Pharmacological Effects of the Compounds on Continuous Infusion in Rats
Adult male Sprague-Dawley rats with body weight ranging from 250 to 300 gm were selected for continuous infusion test. […] Time to recovery of righting reflex from stopping infusion, and time to fully awake from stopping infusion were recorded.

rats [8] = format: in vivo, rat; settings: rats of the MAP/HR figures, 2×ED50, tail vein
[9] = emulsion, continuous infusion at 2×MIR
[10] = H295R cell line, 0.1-10000 nM, HPLC-MS/MS, Table D3
[11] = continuous tail vein infusion at 2×MIR, LORR maintained 1 hour, Table D4
[12] = H295R cell line, 0.1-10000 nM, HPLC-MS/MS, Table E3
[13] = continuous tail vein infusion at 2×MIR, LORR maintained 1 hour, Table E4

SMILES	EC50 ([4]; Homo sapiens, NCI-H295R) [µM]	EC50 ([5]; Homo sapiens, NCI-H295R) [µM]	recovery time of the test animals' righting reflex (rats [6]) [min]	recovery time of the test animals' righting reflex (rats [8]) [s]	Corticosterone as an indicator to determine the presence of inhibition [4, 12]	Cortisol as an indicator to determine the presence of inhibition [5, 12]	other results
C[C@H](c1ccccc1)n1cncc1C(=O)OCC1(C)CSC1 [Compound B8]	–	–	–	–	–	–	ED50 (rats [1]): 0.5 to 1 mg/kg; Approximate therapeutic index (rats [2]): >10; Minimal lethal dose (rats [2]): >10 mg/kg; Righting reflex duration (rats [3]): 5.00 ± 1.25 min; Adverse reactions: Red urine (incidence) (rats [3]; DMSO solution (DMSO alone 10/10)): Red urine (8/8); Onset time (rats [3]; time of LORR): 0.13 ± 0.05 min
CCCC1(COC(=O)c2cncn2[C@H](C)c2ccccc2)COC1 [Compound B10]	> 1	> 1	1.35	81	–	–	Corticosterone as an indicator to determine the presence of inhibition ([4]; H295R, Table B3): 0; Cortisol as an indicator to determine the presence of inhibition ([5]; H295R, Table B3): 0; Recovery time after stopping infusion (rats [7]; after 1 hour infusion at 2×MIR): 9 to 12 min; Adverse reactions: Tremor (incidence) (rats [7]; continuous infusion 2×MIR): Tremor (3/6); Onset time (rats [7]; [9]): 3 to 4 min
CCC1(OC(=O)c2cncn2[C@H](C)c2ccccc2)COC1 [Compound B18]	> 1	> 1	4.65	279	–	–	Corticosterone as an indicator to determine the presence of inhibition ([4]; H295R, Table B3): 0; Cortisol as an indicator to determine the presence of inhibition ([5]; H295R, Table B3): 0; Recovery time after stopping infusion (rats [7]; after 1 hour infusion at 2×MIR): 15 to 18 min; Adverse reactions: Tremor (incidence) (rats [7]; continuous infusion 2×MIR): Tremor (4/6); Onset time (rats [7]; [9]): 3 to 4 min
C[C@H](c1ccccc1)n1cncc1C(=O)SCC1COC1 [Compound B29]	> 10	> 10	1.87	112	–	–	Corticosterone as an indicator to determine the presence of inhibition ([4]; H295R, Table B3): 0; Cortisol as an indicator to determine the presence of inhibition ([5]; H295R, Table B3): 0; Recovery time after stopping infusion (rats [7]; after 1 hour infusion at 2×MIR): 8 to 10 min; Types and incidence of adverse reactions (rats [7]; continuous infusion 2×MIR, in words): No; Onset time (rats [7]; [9]): 2 to 3 min
C[C@H](c1ccccc1)n1cncc1C(=O)OC(C)(C)C#CC#CC(C)(C)O [Compound D38]	> 10	> 10	3.22	193	–	–	Corticosterone as an indicator to determine the presence of inhibition [4, 10]: 0; Cortisol as an indicator to determine the presence of inhibition [5, 10]: 0; Onset time (rats [7]; [11]): 3 to 4 min; Recovery time after stopping infusion (rats [7]; [11]): 12 to 14 min; Types and incidence of adverse reactions (rats [7]; [11]): Tremor (5/6)
C[C@H](c1ccccc1)n1cnc(F)c1C(=O)OC(C)(C)C [Compound E12]	> 10	> 10	3.57	214	0	0	Onset time (rats [7]; [13]): 2 to 3 min; Recovery time after stopping infusion (rats [7]; [13]): 11 to 23 min; Types and incidence of adverse reactions (rats [7]; [13]): Tremor (2/6)
CC(OC(=O)c1c(F)ncn1C(C)c1ccccc1)=C1CCCC1=O (stereo not drawn) [Compound E31]	–	–	1.75	105	0	0	EC50 [4, 12]: > 10 µM; EC50 [5, 12]: > 10 µM; Onset time (rats [7]; [13]): 3 to 4 min; Recovery time after stopping infusion (rats [7]; [13]): 8 to 11 min; Types and incidence of adverse reactions (rats [7]; [13]): Tremor (3/6)
C/C(OC(=O)c1c(Cl)nc(Cl)n1[C@H](C)c1ccccc1)=C1\CCCC1=O [Compound E146]	> 10	> 10	3.35	201	0	0	–
COCC1(COC(=O)c2c(C(F)(F)F)ncn2[C@H](C)c2ccccc2)CCC1 [Compound E157]	> 10	> 10	3.03	182	0	0	–
CC(=O)C(C)(C)OC(=O)c1c(C(F)(F)F)ncn1[C@H](C)c1ccccc1 [Compound E160]	> 10	> 10	1.08	65	0	0	–
CC#CCOC(=O)c1c(C(F)(F)F)ncn1[C@H](C)c1ccccc1 [Compound E161]	> 10	> 10	2.33	140	0	0	–
C=C=CC1(OC(=O)c2c(C(F)(F)F)ncn2[C@H](C)c2ccccc2)COC1 [Compound E163]	–	–	1.58	95	0	0	EC50 [4, 12]: > 10 µM; EC50 [5, 12]: > 10 µM
CCOC(=O)c1c(C(F)(F)F)ncn1[C@H](C)c1ccccc1 [Compound E164]	> 10	> 10	1.28	77	0	0	–
